62 compounds from US10150728B2, “Alkylene derivatives” (Shionogi & Co., Ltd., priority 2013, dated 2018) can be followed below.

For this test, the target named is recombinant human ACC2 (Homo sapiens (Human), UniProt O00763). Put plainly: Measurement of inhibitory activity on human ACC2 (MALDI-TOF MS, acetyl CoA to malonyl CoA conversion). The following applies: Tables 155-159. Type of test: biochemical. In outline: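 His-tagged human ACC2 (residues 27–2458) from baculovirus-infected Sf-9 cells was preincubated 1 h in pH 7.4 HEPES-KOH buffer with MgCl2, 6-10 mM potassium citrate, glutathione and BSA. Substrate solution held 1 mM ATP, 0.8 mM acetyl CoA and 25-50 mM bicarbonate. After 1–3 h at room temperature, malonyl CoA/(malonyl+acetyl CoA) was read by negative-mode MALDI-TOF MS; citrate, bicarbonate and time varied by enzyme lot.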
recombinant human ACC2, sequence (O00763 27-2458): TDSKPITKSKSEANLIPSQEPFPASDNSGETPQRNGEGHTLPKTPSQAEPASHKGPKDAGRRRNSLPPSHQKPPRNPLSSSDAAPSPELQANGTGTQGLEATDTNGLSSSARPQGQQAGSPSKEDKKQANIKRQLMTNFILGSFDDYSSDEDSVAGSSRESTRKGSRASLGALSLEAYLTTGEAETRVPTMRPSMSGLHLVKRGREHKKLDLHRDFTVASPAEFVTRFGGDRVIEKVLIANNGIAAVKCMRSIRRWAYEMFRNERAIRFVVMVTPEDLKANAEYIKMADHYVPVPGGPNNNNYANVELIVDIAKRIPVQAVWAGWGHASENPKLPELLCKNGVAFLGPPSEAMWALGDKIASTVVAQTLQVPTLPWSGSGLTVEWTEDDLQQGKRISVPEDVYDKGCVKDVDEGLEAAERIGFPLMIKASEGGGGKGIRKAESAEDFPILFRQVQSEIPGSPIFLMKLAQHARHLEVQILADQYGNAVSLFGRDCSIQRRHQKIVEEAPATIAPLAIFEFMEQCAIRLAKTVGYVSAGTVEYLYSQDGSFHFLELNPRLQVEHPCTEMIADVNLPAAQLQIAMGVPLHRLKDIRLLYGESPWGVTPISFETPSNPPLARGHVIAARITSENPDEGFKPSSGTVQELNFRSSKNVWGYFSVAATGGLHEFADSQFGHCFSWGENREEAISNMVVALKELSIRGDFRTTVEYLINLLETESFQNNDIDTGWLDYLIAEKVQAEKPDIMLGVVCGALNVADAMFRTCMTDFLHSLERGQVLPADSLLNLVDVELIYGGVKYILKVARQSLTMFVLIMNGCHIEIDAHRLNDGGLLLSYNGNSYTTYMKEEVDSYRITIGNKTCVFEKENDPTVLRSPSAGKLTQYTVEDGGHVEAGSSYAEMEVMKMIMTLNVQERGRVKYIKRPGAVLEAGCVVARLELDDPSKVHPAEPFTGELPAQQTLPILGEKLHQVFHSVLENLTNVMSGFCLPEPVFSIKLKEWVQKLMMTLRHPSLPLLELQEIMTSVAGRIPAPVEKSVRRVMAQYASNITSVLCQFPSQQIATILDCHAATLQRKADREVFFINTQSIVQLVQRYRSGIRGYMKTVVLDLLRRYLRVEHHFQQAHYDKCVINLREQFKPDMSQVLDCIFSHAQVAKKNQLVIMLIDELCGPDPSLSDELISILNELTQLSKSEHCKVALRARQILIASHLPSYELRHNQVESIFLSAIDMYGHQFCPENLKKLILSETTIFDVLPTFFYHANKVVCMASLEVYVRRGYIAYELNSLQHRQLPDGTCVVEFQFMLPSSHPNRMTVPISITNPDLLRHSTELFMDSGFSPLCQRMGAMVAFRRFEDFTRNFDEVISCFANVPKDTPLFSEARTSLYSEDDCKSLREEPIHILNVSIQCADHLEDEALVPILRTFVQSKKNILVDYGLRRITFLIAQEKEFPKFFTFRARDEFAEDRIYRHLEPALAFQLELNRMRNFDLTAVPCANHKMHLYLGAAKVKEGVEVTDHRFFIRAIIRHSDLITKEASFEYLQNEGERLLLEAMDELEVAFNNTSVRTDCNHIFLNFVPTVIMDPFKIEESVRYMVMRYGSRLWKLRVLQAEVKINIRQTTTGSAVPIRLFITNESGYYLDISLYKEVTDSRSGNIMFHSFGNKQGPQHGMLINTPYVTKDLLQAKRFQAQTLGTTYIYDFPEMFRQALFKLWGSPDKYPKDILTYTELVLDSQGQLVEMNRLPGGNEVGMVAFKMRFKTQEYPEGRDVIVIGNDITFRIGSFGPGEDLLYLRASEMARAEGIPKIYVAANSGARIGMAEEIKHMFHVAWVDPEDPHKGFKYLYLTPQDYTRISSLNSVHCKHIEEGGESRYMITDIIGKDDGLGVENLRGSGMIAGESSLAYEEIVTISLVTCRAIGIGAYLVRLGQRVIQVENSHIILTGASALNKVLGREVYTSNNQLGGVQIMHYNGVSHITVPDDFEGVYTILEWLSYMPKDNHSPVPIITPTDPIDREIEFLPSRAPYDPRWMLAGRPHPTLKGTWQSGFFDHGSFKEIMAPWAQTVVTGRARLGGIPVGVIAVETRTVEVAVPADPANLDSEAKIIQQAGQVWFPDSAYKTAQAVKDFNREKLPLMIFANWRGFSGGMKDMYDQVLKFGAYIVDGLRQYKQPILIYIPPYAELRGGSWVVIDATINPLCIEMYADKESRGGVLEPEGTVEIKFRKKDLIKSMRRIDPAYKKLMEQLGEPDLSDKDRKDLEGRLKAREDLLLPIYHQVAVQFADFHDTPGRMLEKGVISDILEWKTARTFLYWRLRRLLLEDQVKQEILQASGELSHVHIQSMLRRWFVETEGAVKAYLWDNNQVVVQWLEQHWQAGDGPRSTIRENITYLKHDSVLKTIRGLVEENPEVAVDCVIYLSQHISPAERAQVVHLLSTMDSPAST
With `CCOc1ccc2nc(O[C@H]3CC[C@H](OC[C@H](C)NC(C)=O)CC3)n(CC)c2c1` [Compound I-579], the IC50 is 334 nM. Turning to `CC(=O)N[C@@H](C)CO[C@H]1CC[C@H](Oc2nc3ccc(-c4ccccc4)cc3n2C)CC1` [Compound I-582], the half-inhibitory concentration (IC50) is 168 nM.

As for `CCc1ccc2nc(O[C@H]3CC[C@H](OC[C@H](C)NC(C)=O)CC3)n(C)c2c1` [Compound I-583], the IC50 is 71 nM. To `CC(=O)N[C@@H](C)CO[C@H]1CC[C@H](Oc2nc3ccc(C(C)C)cc3n2C)CC1` [Compound I-585] belongs 77 nM.

With `CC(=O)N[C@@H](C)CO[C@H]1CC[C@H](Oc2nc3ccc(Oc4ccccc4)cc3n2C)CC1` [Compound I-586], the IC50 was 9 nM. As for `CC(=O)N[C@@H](C)CO[C@H]1CC[C@H](Oc2nc3cc(C(F)(F)F)ccc3n2C)CC1` [Compound I-587], the IC50 stood at 87 nM. For `CC(=O)N[C@@H](C)CO[C@H]1CC[C@H](Oc2nc3ccc(Oc4ccccn4)cc3n2C)CC1` [Compound I-590] the value was 584 nM. As to `CC(=O)N[C@@H](C)CO[C@H]1CC[C@H](Oc2nc3cnc(Oc4ccccc4)cc3n2C)CC1` [Compound I-592], the IC50 was found to be 110 nM.

In the case of `CC(=O)N[C@@H](C)CO[C@H]1CC[C@H](Oc2nc3ccc(Oc4cccnc4)cc3n2C)CC1` [Compound I-593], the IC50 was 80 nM.

As for `CC(=O)N[C@@H](C)CO[C@H]1CC[C@H](Oc2nc3ccc(Oc4ccncc4)cc3n2C)CC1` [Compound I-594], the IC50 is 383 nM. `CC(=O)N[C@@H](C)CO[C@H]1CC[C@H](Oc2nc3ccc(Oc4ccc(F)cc4)cc3n2C)CC1` [Compound I-596]: the IC50 stood at 10 nM.

Regarding `COc1ccc2nc(O[C@H]3CC[C@H](OC[C@H](C)NC(C)=O)CC3)n(C)c2c1F` [Compound I-599], the IC50 amounted to 23 nM. For `CC(=O)N[C@@H](C)CO[C@H]1CC[C@H](Oc2nc3ccc(OCc4ccccc4)c(F)c3n2C)CC1` [Compound I-600] the value was 13 nM. In the case of `CCOc1ccc2nc(O[C@H]3CC[C@H](OC[C@H](C)NC(C)=O)CC3)n(C)c2c1F` [Compound I-601], the IC50 turned out to be 8 nM. For `CC(=O)N[C@@H](C)CO[C@H]1CC[C@H](Oc2nc3ccc(OC(C)C)c(F)c3n2C)CC1` [Compound I-602] the value was 12 nM; for `CCOc1c(Cl)cc2nc(O[C@H]3CC[C@H](OC[C@H](C)NC(C)=O)CC3)n(C)c2c1Cl` [Compound I-603], 7 nM; for `CCOc1ccc2nc(O[C@H]3CC[C@H](OC[C@H](C)NC(C)=O)CC3)n(C)c2c1Cl` [Compound I-604], 6 nM. For `CCOc1ccc2nc(O[C@H]3CC[C@H](OC[C@H](C)NC(C)=O)CC3)n(C)c2c1Br` [Compound I-605] the value was 13 nM. To `CCOc1ccc2nc(O[C@H]3CC[C@H](OC[C@H](C)NC(C)=O)CC3)n(C)c2c1C` [Compound I-606] belongs 74 nM; to `CC(=O)N[C@@H](C)CO[C@H]1CC[C@H](Oc2nc3cnc(OC(C)C)cc3n2C)CC1` [Compound I-607], 110 nM; to `CC(=O)N[C@@H](C)CO[C@H]1CC[C@H](Oc2nc3cnc(OC[C@H](C)F)c(Cl)c3n2C)CC1` [Compound I-608], 11 nM. Regarding `CC(=O)N[C@@H](C)CO[C@H]1CC[C@H](Oc2nc3c(Cl)c(Cl)c(OCC(F)F)cc3n2C)CC1` [Compound I-609], the IC50 amounted to 525 nM. For `CCOc1cc2c(nc(O[C@H]3CC[C@H](OC[C@H](C)NC(C)=O)CC3)n2C)c(F)c1Cl` [Compound I-610] the value was 85 nM; for `CC(=O)N[C@@H](C)CO[C@H]1CC[C@H](Oc2nc3c(F)cc(OC4CC4)c(F)c3n2C)CC1` [Compound I-611], 3 nM; for `C[C@@H](CO[C@H]1CC[C@H](Oc2nc3c(F)cc(OCC(F)F)c(F)c3n2C)CC1)NC(=O)C(F)F` [Compound I-614], 11 nM. For `CC(=O)N[C@@H](C)CC[C@H]1OC[C@H](Oc2nc3c(F)cc(OCC(F)F)c(F)c3n2C)CO1` [Compound I-615] the value was 27 nM.

As for `CC(=O)N[C@@H](C)CO[C@H]1CC[C@H](Oc2nc3c(F)cc(OC4CN(C(C)=O)C4)c(F)c3n2C)CC1` [Compound I-616], the IC50 worked out at 240 nM.

For the compound `CC(=O)N[C@@H](C)CO[C@H]1CC[C@H](Oc2nc3c(C#N)cc(OC4CC4)c(F)c3n2C)CC1` [Compound I-617], the IC50 came to 9 nM. To `CC(=O)N[C@@H](C)CO[C@H]1CC[C@H](Oc2nc3c(Cl)c(F)c(OCC(F)F)c(F)c3n2C)CC1` [Compound I-618] belongs 17 nM; to `CC(=O)N[C@@H](C)CO[C@H]1CC[C@H](Oc2nc3c(F)c(F)c(F)c(F)c3n2C)CC1` [Compound I-619], 9 nM.

`CC(=O)N[C@@H](C)CO[C@H]1CC[C@H](Oc2nc3cnc(OCc4ccccc4)c(Cl)c3n2C)CC1` [Compound I-620]: the IC50 came to 28 nM. To `CC(=O)N[C@@H](C)CO[C@H]1CC[C@H](Oc2nc3ccc(C4CC4)c(F)c3n2C)CC1` [Compound I-621] belongs 8 nM; to `CC(=O)N[C@@H](C)CO[C@H]1CC[C@H](Oc2nc3c(F)cc(Br)cc3n2C)CC1` [Compound I-622], 72 nM; to `CC(=O)N[C@@H](C)CO[C@H]1CC[C@H](Oc2nc3c(Cl)cc(OCC(F)F)c(Cl)c3n2C)CC1` [Compound I-623], 17 nM. As to `CC(=O)N[C@@H](C)CO[C@H]1CC[C@H](Oc2nc3cnc(OCC(F)F)c(F)c3n2C)CC1` [Compound I-624], the IC50 is 9 nM. For `CC(=O)N[C@@H](C)CO[C@H]1CC[C@H](Oc2nc3cnc(OCC4CC4)c(F)c3n2C)CC1` [Compound I-625] the value was 5 nM; for `CC(=O)N[C@@H](C)CO[C@H]1CC[C@H](Oc2nc3c(F)cc(OCC4CC4)c(F)c3n2C)CC1` [Compound I-626], 6 nM. For `CC(=O)N[C@@H](C)CC[C@@H]1CC[C@@H](Oc2nc3c(F)cc(OCC(F)F)c(F)c3n2C)CO1` [Compound I-627] the value was 5 nM; for `C[C@@H](CO[C@H]1CC[C@H](Oc2nc3c(F)cc(OCC(F)F)c(F)c3n2C)CC1)NC(=O)CO` [Compound I-628], 59 nM. For `C[C@@H](CO[C@H]1CC[C@H](Oc2nc3c(F)cc(OCC(F)F)c(F)c3n2C)CC1)NC(=O)c1cnn(C)c1` [Compound I-629] the value was 98 nM. As for `CC(=O)N[C@@H](C)CO[C@H]1CC[C@H](Oc2nc3c(F)cc(F)c(F)c3n2C)CC1` [Compound I-630], the IC50 came to 25 nM. For `C[C@@H](CO[C@H]1CC[C@H](Oc2nc3c(F)cc(OCC(F)F)c(F)c3n2C)CC1)NC(=O)N(C)C` [Compound I-631] the value was 10 nM. For `CC(=O)N[C@@H](C)CO[C@H]1CC[C@H](Oc2nc3c(C)nc(OC4CC4)c(F)c3n2C)CC1` [Compound I-632] the value was 19 nM; for `CC(=O)N[C@@H](C)CO[C@H]1CC[C@H](Oc2nc3cnc(OCc4ccccc4)c(F)c3n2C)CC1` [Compound I-634], 34 nM. For `CCOc1cc(F)c2c(nc(O[C@H]3CC[C@H](OC[C@H](C)NC(C)=O)CC3)n2C)c1F` [Compound I-635] the value was 104 nM; for `CC(=O)N[C@@H](C)CC[C@H]1CC[C@H](Oc2nc3cnc(OC4CC4)c(Cl)c3n2C)CC1` [Compound I-636], 4 nM. As to `CC(=O)N[C@@H](C)CO[C@H]1CC[C@H](Oc2nc3c(F)cc(OCC(F)F)c(Cl)c3n2C)CC1` [Compound I-637], the IC50 amounted to 4 nM.

On to `CC(=O)N[C@@H](C)CO[C@H]1CC[C@H](Oc2nc3c(Cl)ccc(F)c3n2C)CC1` [Compound I-638], for which the IC50 was 140 nM. To `CC(=O)N[C@@H](C)CO[C@H]1CC[C@H](Oc2nc3c(F)cc(OC4CCC4)c(F)c3n2C)CC1` [Compound I-639] belongs 2 nM; to `C[C@@H](CO[C@H]1CC[C@H](Oc2nc3c(F)cc(OCC(F)F)c(F)c3n2C)CC1)NC(=O)COC(N)=O` [Compound I-640], 110 nM. For `CCOc1cc2c(nc(O[C@H]3CC[C@H](OC[C@H](C)NC(C)=O)CC3)n2C)c(F)n1` [Compound I-641] the value was 73 nM; for `CC(=O)N[C@@H](C)CC[C@H]1CC[C@H](Oc2nc3c(F)cc(OCC(F)F)c(F)c3n2C)CO1` [Compound I-642], 7 nM; for `CC(=O)N[C@@H](C)C(F)(F)C[C@@H]1CC[C@@H](Oc2nc3c(F)cc(OCC(F)F)c(F)c3n2C)CO1` [Compound I-643], 250 nM. Consider `CC(=O)N[C@@H](C)CC[C@H]1OC[C@H](Oc2nc3cnc(OCC(F)F)c(Cl)c3n2C)C[C@@H]1C` [Compound I-644], for which the IC50 is 26 nM. For `CCOc1ncc2nc(O[C@H]3CC[C@H](OC[C@H](C)NC(C)=O)CC3)n(C)c2c1Cl` [Compound I-646] the value was 15 nM.

For the compound `CC(=O)N[C@@H](C)CO[C@H]1CC[C@H](Oc2nc3cnc(OC(C)C)c(Cl)c3n2C)CC1` [Compound I-647], the IC50 turned out to be 6 nM. To `CC(=O)N[C@@H](C)CO[C@H]1CC[C@H](Oc2nc3c(Cl)cc(C4CC4)cc3n2C)CC1` [Compound I-648] belongs 110 nM. As to `CC(=O)N[C@@H](C)CO[C@H]1CC[C@H](Oc2nc3c(Cl)cc(Oc4ccccc4)cc3n2C)CC1` [Compound I-649], the IC50 was 9 nM. To `CC(=O)N[C@@H](C)CO[C@H]1CC[C@H](Oc2nc3c(C4CC4)cc(OCC(F)F)cc3n2C)CC1` [Compound I-650] belongs 375 nM; to `CCOc1cc(Cl)c2nc(O[C@H]3CC[C@H](OC[C@H](C)NC(C)=O)CC3)n(C)c2c1F` [Compound I-651], 4 nM; to `CC(=O)N[C@@H](C)CO[C@H]1CC[C@H](Oc2nc3c(F)cc(OCc4ccccc4)c(F)c3n2C)CC1` [Compound I-652], 7 nM. To `CC(=O)N[C@@H](C)CO[C@H]1CC[C@H](Oc2nc3c(C#N)cc(OCC(F)F)c(F)c3n2C)CC1` [Compound I-653] belongs 65 nM.
